Key:
Format in all cases: biochemical
FGFR1 = FGFR1 (Homo sapiens, UniProt P11362); assay: Kinase inhibition activity test, isotope labeling: FGFR1; conditions: ATP 200 μM; read-out: FGFR1 IC50 value (inhibitory activity value)
Protocol: (§1) The purpose of this experiment was to test the inhibitory activity of the compound of the invention for in vitro kinase with the isotope labeling method (the γ phosphate group on ATP was labeled). In this experiment, the in vitro activity inhibition of such kinases as FLT3, VEGFR2, FLT1, FLT4, RET, c-RAF, B-RAF, c-KIT, PDGFα, PDGFβ, FGFR2, FGFR1, EphA2, EphB2, SRC, ABL, ALK and Met was tested respectively. Staurosporine was reference molecule (or referred to as positive control). The kinase inhibition activity of the test compound was expressed by half-inhibitory concentration (IC50) or the kinase activity inhibition rate of the test compound at a concentration of 10 μM. The IC50 value could be obtained by calculating the kinase activity inhibition rate of the test compound at different concentrations.
(§2) 20 mM 3-(N-morpholinyl)propanesulfonic acid (MOPS); 1 mM ethylenediaminetetraacetic acid (EDTA), 0.01% Brij 35 (Brij-35), 5% glycerol, 0.1% mercaptoethanol, 1 mg/mL bovine serum albumin (BSA), 10 mM manganous dichloride solution (MnCl2), 0.1 mg/mL glutamic acid/tyrosine (4:1) polypeptide (poly(Glu, Tyr)4:1), 50 μM EAIYAAPFAKKK (substrate of FLT3), 0.33 mg/mL myelin basic protein (substrate of VEGFR2), 250 μM KKKSPGEYVNIEFG (substrate of FLT1(h)), 500 μM GGEEEEYFELVKKKK (substrate of FLT4(h)), 250 μM KKKSPGEYVNIEFG (substrate of RET), 0.66 mg/mL myelin basic protein (substrate of C-RAF), 250 μM GGMEDIYFEFMGGKKK (substrate of c-Kit), 250 μM GGMEDIYFEFMGGKKK (substrate of PDGFα), 250 μM KKKSPGEYVNIEFG (substrate of FGFR1), […] GGEEEEYFELVKKKK (substrate of SRC), 50 μM EAIYAAPFAKKK (substrate of ABL), 250 μM KKKSPGEYVNIEFG (substrate of ALK), 250 μM KKKSPGEYVNIEFG (substrate of Met(h)), 10 mM magnesium acetate and γ-^33 P-ATP solution, stop buffer (3% phosphate buffer), washing buffer (75 mM phosphate solution), methanol, Filtermat A membrane, FLT3, VEGFR2, FLT3, VEGFR2, FLT1, FLT4, RET, c-RAF, B-RAF, c-KIT, PDGFRα, PDGFRβ, FGFR2, FGFR1, EphA2, EphB2, SRC, ABL, ALK, Met and other kinases, and the test compounds.
(§3) Buffers (8 mM MOPS with pH value of 7.0, 0.2 mM EDTA and 10 mM MnCl2), (5-10 mU) kinases to be tested (FLT3, VEGFR2, FLT1, FLT4, RET, c-RAF, B-RAF, c-KIT, PDGFRα, PDGFRβ, FGFR2, FGFR1, EphA2, EphB2, SRC, ABL, ALK and Met), substrates of kinases to be tested (refer to experimental materials), 10 mM magnesium acetate and γ-^33 P-ATP solution, and test compounds at different concentrations were added to a reaction tube orderly. […] Reaction was terminated with 5 μL 3% phosphate buffer finally, and 10 μL reaction solution was titrated to the Filtermat A membrane; solution was washed for 3 times with 75 mM phosphate solution with each time lasting 5 minutes, and then washed once with methanol. […]

FLT4 = FLT4 (Homo sapiens, UniProt P35916); assay: Kinase inhibition activity test, isotope labeling: FLT4; conditions: ATP 200 μM; read-out: FLT4 IC50 value (inhibitory activity value)
Protocol: as §1, §2, §3

RET = RET (Homo sapiens, UniProt P07949); assay: Kinase inhibition activity test, isotope labeling: RET; conditions: ATP 70 μM; read-out: RET IC50 value (inhibitory activity value)
Protocol: as §1, §2, §3

Sequence of RET (P07949 29-1114): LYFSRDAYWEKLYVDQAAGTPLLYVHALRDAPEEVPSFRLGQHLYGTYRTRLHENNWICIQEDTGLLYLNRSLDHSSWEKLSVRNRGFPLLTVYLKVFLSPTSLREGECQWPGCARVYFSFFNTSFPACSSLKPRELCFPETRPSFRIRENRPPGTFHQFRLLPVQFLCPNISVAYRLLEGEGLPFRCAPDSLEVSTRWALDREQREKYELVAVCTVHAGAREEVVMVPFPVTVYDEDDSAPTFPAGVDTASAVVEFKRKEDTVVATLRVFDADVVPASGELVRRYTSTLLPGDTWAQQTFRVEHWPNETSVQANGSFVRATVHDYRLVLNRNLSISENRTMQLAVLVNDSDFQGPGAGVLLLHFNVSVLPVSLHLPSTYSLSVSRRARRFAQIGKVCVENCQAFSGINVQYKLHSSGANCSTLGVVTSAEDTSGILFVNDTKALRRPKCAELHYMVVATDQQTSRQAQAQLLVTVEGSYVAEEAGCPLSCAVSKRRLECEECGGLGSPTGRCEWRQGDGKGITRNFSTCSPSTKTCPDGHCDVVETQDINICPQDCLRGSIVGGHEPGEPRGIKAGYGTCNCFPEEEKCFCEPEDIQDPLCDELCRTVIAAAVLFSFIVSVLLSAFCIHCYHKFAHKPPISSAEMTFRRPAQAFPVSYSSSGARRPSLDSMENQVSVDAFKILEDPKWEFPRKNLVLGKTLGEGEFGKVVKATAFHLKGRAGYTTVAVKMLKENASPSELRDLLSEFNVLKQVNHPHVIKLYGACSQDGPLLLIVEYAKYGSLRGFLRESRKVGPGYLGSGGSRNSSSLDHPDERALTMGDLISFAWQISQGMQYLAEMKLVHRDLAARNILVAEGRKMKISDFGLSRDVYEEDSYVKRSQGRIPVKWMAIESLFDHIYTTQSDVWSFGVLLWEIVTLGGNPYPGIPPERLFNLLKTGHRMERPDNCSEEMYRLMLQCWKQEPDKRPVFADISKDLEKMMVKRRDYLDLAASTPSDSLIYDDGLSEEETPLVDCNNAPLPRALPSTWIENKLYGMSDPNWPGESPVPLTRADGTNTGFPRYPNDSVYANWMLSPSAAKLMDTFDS
Sequence of FLT4 (P35916 25-1363): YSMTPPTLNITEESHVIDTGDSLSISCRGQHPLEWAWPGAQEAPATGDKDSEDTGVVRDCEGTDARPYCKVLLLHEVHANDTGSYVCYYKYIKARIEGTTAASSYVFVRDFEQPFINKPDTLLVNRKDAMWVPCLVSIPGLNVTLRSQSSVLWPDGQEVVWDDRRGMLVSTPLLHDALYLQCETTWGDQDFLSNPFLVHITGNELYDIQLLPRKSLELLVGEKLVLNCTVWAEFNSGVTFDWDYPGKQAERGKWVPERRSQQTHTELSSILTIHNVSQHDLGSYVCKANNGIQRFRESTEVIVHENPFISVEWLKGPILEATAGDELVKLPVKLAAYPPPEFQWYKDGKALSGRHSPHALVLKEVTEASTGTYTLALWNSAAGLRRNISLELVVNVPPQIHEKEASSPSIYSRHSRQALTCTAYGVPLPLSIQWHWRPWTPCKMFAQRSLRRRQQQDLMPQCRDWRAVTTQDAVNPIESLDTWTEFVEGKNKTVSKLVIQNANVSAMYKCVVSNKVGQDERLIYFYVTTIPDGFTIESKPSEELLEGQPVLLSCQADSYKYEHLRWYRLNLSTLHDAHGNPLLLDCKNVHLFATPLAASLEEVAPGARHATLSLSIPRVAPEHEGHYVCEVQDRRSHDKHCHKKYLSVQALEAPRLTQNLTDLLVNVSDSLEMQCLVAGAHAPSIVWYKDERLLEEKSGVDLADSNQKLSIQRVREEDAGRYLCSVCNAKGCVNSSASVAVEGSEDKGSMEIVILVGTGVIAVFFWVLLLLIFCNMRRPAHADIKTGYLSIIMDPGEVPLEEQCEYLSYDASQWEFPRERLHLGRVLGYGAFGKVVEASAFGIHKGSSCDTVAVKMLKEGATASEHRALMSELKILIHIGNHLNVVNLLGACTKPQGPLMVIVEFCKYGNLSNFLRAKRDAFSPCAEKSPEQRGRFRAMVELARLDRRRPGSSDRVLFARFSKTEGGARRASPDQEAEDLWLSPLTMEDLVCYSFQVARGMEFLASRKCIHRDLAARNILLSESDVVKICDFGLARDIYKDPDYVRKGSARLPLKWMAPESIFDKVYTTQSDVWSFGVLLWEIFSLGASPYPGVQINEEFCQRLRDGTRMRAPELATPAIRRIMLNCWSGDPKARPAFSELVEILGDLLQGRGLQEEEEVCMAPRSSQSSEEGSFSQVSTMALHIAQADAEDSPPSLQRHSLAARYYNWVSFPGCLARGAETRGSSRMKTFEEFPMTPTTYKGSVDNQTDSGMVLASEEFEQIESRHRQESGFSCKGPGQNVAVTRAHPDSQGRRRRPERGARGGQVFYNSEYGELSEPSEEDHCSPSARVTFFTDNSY
Sequence of FGFR1 (P11362 22-822): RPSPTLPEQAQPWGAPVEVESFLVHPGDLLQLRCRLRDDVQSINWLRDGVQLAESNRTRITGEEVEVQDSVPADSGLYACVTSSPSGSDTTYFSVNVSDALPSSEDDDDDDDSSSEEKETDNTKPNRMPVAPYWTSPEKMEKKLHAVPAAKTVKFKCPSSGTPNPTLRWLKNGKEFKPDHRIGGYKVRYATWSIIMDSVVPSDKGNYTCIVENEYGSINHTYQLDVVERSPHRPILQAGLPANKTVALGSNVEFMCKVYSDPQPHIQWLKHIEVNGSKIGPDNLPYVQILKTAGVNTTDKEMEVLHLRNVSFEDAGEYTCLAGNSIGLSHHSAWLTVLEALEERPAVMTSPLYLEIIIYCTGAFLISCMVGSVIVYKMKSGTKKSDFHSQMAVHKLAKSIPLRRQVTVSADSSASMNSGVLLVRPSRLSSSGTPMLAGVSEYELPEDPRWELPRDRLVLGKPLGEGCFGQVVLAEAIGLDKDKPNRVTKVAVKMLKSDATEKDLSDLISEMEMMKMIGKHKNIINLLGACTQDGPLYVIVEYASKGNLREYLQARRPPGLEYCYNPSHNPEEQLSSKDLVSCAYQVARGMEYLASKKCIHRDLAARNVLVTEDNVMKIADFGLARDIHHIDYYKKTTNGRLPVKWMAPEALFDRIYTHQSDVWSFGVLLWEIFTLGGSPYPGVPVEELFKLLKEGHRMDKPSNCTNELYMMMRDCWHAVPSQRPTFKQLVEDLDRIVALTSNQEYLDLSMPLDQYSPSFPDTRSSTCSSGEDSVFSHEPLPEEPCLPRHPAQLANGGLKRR

| SMILES | IC50 (FGFR1) | IC50 (FLT4) | IC50 (RET) |
| --- | --- | --- | --- |
| O=C(Nc1ccc(Oc2ncnc3[nH]ncc23)cc1)Nc1ccc(Cl)c(C(F)(F)F)c1 [4a-2] | < 10 µM | < 10 µM | < 10 µM |
| O=C(Nc1ccc(Oc2ncnc3[nH]ncc23)cc1)Nc1cccc(C(F)(F)F)c1 [4a-6] | 2.25 µM | 0.005 µM | 0.004 µM |
| CC(C)(C)c1cc(NC(=O)Nc2ccc(Oc3ncnc4[nH]ncc34)cc2)on1 [4a-25] | < 10 µM | < 10 µM | < 10 µM |
| CC(C)(C)c1cc(NC(=O)Nc2ccc(Oc3ncnc4[nH]ncc34)c(F)c2)no1 [4a-31] | < 10 µM | < 10 µM | < 10 µM |
